In test [1] the test system is HCMV engineered virus RC256. Briefly: microbe, parasite or virus in culture. It counts as cell-based, human cytomegalovirus. The following applies: Human betaherpesvirus 5, Fibroblast, read-out: Antiviral Activity RC256, first value (EC50).
Test [2] deals with T1, Human leukocyte elastase (HLE) (Homo sapiens, UniProt P08246).
T1 construct: gift of R. Senior, Washington University
T1 sequence (P08246 30-267): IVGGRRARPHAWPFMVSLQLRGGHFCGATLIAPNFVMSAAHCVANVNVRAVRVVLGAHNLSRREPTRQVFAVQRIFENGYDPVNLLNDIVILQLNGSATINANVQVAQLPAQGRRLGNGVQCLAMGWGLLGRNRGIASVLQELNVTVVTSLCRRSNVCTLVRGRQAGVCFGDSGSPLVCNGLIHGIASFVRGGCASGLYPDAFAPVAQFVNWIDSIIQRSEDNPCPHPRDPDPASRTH
Briefly: Human leukocyte elastase assay. It counts as biochemical. The procedure:
Human leukocyte elastase (HLE) (gift of R. Senior, Washington University) was dissolved in saline at 1 mg/ml and further diluted 1/20 in assay buffer (0.2 M Tris, pH 8.0) before use. 10 μl of test compound in DMSO (or DMSO alone), 100 μl of assay buffer and 50 μl of enzyme were added to 96 well plates, mixed and pre-incubated for 30 minutes at ambient temperature. Reaction was initiated by addition of 40 μl of 2.5 mM methoxysuccinyl-Ala-Ala-Pro-Val-p-nitroanilide (Sigma; 25 mM in DMSO diluted 1/10 in assay buffer before use). The increase in absorbance at 405 nm was monitored for 10 minutes with a Biotek EL340 plate reader.

[3] abbreviates: @ 10 (concentration unit not given).
[4] abbreviates: @ 1 (concentration unit not given).

The results in this text go back to patent US6683077B2, “2-Amino-benzoxazinones for the treatment of viral infections” (G.D. Searle & Co., priority 1996, dated 2004).

In the case of `COc1ccc(C[C@H](Nc2nc3ccc(CNC(=O)OCC(C)C)c(C)c3c(=O)o2)C(=O)N(C)Cc2ccccc2)cc1` [Example 9h, 2-Methylpropyl[[2-[[1S-[(4-methoxyphenyl)methyl]-2-[methyl(phenylmethyl)amino]-2-oxoethyl]amino]-5-methyl-4-oxo-4H-3,1-benzoxazin-6-yl]methyl]carbamate], the concentration giving a half-maximal response (EC50) in test [1] came out at 14 µM. Moreover, in test [2] (setting [3]), the “HLE, % @ concentration” value was 45% @ 10.
Take `Cc1c(NC(=O)OC(C)(C)C)ccc2nc(N[C@@H](C)C(=O)OC(C)(C)C)oc(=O)c12` [Example 6, N-[6-[[(1,1-Dimethylethoxy]carbonyl]amino]-5-methyl-4-oxo-4H-3,1-benzoxazin-2-yl]-L-alanine, 1,1-dimethylethyl Ester]: the EC50 in test [1] is > 100 µM. Besides, the “HLE, % @ concentration” value in test [2] (@ 100 (concentration unit not given)) was determined as 29% @ 100.
For `COC(=O)C1(Nc2nc3ccc(NC(=O)OC(C)(C)C)c(C)c3c(=O)o2)CC1` [Example 6x, N-[6-[[(1,1-Dimethylethoxy)carbonyl]amino]-5-methyl-4-oxo-4H-3,1-benzoxazin-2-yl]-1-cyclopropanecarboxylic acid, methyl ester], the EC50 in test [1] is > 100 µM. For the same compound, in test [2] (setting [3]), the “HLE, % @ concentration” value is on record as 25% @ 10.
For the compound `Cc1c(CNC(=O)N(C)c2ccccc2)ccc2nc(N[C@@H](Cc3ccccc3)C(=O)N(C)Cc3ccccc3)oc(=O)c12` [Example 12i, N-Methyl-αS-[[5-methyl-6-[[[(methylphenylamino)carbonyl]amino]methyl]-4-oxo-4H-3,1-benzoxazin-2-yl]amino]-N-(phenylmethyl)benzenepropanamide], in test [1], the EC50 came to 6 µM. Besides, in test [2] (setting [4]), the “HLE, % @ concentration” value was determined as 47% @ 1.
The like results for `Cc1c(CNC(=O)N[C@H](C)c2ccccc2)ccc2nc(N[C@@H](Cc3ccccc3)C(=O)N(C)Cc3ccccc3)oc(=O)c12` [Example 12g] were, in that order, 30 µM and 45% @ 1.
In the case of `COc1ccc(C[C@H](Nc2nc3ccc(CNC(=O)OCc4ccncc4)c(C)c3c(=O)o2)C(=O)N(C)Cc2ccccc2)cc1` [Example 18d, (4-Pyridinyl)methyl[[2-[[1S-[(4-methoxyphenyl)methyl]-2-[methyl(phenylmethyl)amino]-2-oxoethyl]amino]-5-methyl-4-oxo-3,1-benzoxazin-6-yl]methyl]carbamate], in test [1], the EC50 stood at 12 µM. Besides, the “HLE, % @ concentration” value in test [2] (setting [4]) came out at 55% @ 1.
For `Cc1c(CNC(=O)NCc2ccccc2)ccc2nc(N[C@@H](Cc3ccccc3)C(=O)N(C)Cc3ccccc3)oc(=O)c12` [Example 12h, N-Methyl-αS-[[5-methyl-4-oxo-6-[[[[(phenylmethyl)amino]carbonyl]amino]methyl]-4H-3,1-benzoxazin-2-yl]amino]-N-(phenylmethyl)benzenepropanamide], the EC50 in test [1] stood at 18 µM. For the same compound, the “HLE, % @ concentration” value in test [2] (setting [4]) is 58% @ 1.
Consider `Cc1ccc(S(=O)(=O)NCc2cc(Br)c3nc(N[C@@H](Cc4ccccc4)C(=O)N(C)Cc4ccccc4)oc(=O)c3c2C)cc1` [Example 13d, αS-[[8-Bromo-5-methyl-6-[[[(4-methylphenyl)sulfonyl]amino]methyl]-4-oxo-4H-3,1-benzoxazin-2-yl]amino]-N-methyl-N-(phenylmethyl)benzenepropanamide], for which, in test [1], the EC50 is 8 µM. Further, the “HLE, % @ concentration” value in test [2] (setting [3]) amounted to 87% @ 10.
As to `COc1ccc(C[C@H](Nc2nc3ccc(CNC(=O)CC(C)(C)C)c(C)c3c(=O)o2)C(=O)N(C)Cc2ccccc2)cc1` [Example 9m, αS-[[6-[[(3,3-Dimethyl-1-oxobutyl)amino]methyl]-5-methyl-4-oxo-4H-3,1-benzoxazin-2-yl]amino]-4-methoxy-N-methyl-N-(phenylmethyl)benzenepropanamide], the concentration giving a half-maximal response (EC50) in test [1] worked out at 14 µM. The “HLE, % @ concentration” value in test [2] (setting [4]) turned out to be 73% @ 1.
Consider `Cc1c(CNC(=O)OCc2ccccc2)ccc2nc(N[C@@H](Cc3ccccc3)C(=O)N(C)CCc3ccccc3)oc(=O)c12` [Example 9dd, Phenylmethyl[[5-methyl-2-[[2-[methyl(2-phenylethyl)amino]-2-oxo-1S-(phenylmethyl)ethyl]amino]-4-oxo-3,1-benzoxazin-6-yl]methyl]carbamate], for which the EC50 in test [1] came out at 45 µM. In addition, the “HLE, % @ concentration” value in test [2] (setting [3]) is 78% @ 10.

By EC50 is commonly meant the concentration needed to bring the measured effect to its halfway point.
